Among the data in patent publication US8399494B2, “2,5-disubstituted phenyl carboxamide orexin receptor antagonists” (Merck Sharp & Dohme Corp., priority 2008, dated 2013) are Ki values, retold here.

For the assay, the target named is T1, OX2R (Homo sapiens, UniProt O43614).
T1 construct: expressed in transfected cells; host or cells: CHO cells (membranes)
T1 sequence (O43614 1-444): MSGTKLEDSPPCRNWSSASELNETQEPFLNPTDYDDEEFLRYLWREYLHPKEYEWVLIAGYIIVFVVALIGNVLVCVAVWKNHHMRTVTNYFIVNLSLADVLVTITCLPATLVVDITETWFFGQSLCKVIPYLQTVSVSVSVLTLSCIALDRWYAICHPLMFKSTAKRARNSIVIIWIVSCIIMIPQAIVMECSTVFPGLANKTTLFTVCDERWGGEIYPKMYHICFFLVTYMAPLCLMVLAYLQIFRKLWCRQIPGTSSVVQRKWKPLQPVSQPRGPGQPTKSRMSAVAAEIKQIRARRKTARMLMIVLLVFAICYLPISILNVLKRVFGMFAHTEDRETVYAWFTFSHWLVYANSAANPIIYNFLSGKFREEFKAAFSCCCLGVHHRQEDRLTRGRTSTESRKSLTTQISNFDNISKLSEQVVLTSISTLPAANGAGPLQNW
Kind of assay: radioligand binding assay, OX2 receptor. The note with it: membranes prepared from CHO cells expressing OX2 receptor.

A word on the Ki: it is the dissociation constant of the complex between target and ligand, obtained from inhibition or displacement.

For the molecule `CCc1nc(CNC(=O)c2cc(-c3cncc(C)c3)ccc2-c2cnn(C)c2)ccc1OC` [1-17, N-[(6-ethyl-5-methoxypyridin-2-yl)methyl]-2-(1-methyl-1H-pyrazol-4-yl)-5-(5-methylpyridin-3-yl)benzamide], the Ki worked out at 1.3 nM.

The molecule `COc1ccc(CNC(=O)c2cc(-c3cc(Cl)cc(Cl)c3)ccc2-c2cccnc2)cc1OC` [1-6, 3′,5′-dichloro-N-(3,4-dimethoxybenzyl)-4-pyridin-3-ylbiphenyl-3-carboxamide] registered a Ki of 0.12 nM.
